Tests used:
[1] = system: Jurkat cell (ATCC TIB-152); test: Jurkat cell apoptosis induced by Fas antibody, WST-1 method; format: cell-based; details: Homo sapiens, amount of alive Jurkat cells by WST-1
Description: The […] inhibitory activity of the inhibitors was determined by subjecting Jurkat cell (ATCC TIB-152) to apoptosis using Fas antibody (Upstate Biotech 05-201) and by detecting the color change according to the WST-1 method known in Francoeur A. M. and Assalian A. (1996) Biochemica 3, 19-25 to observe the amount of alive Jurkat cells when the cells were treated by the inhibitor. Spectra MAX 340 Spectrometer of Molecular Device Co. was used at the absorbance wavelength of 440 nm.

caspase-8 = molecular target: T1, caspase-8 (Homo sapiens, UniProt Q14790); test: Assay for the caspase inhibitory effect (fluorescent substrate AcDEVD-AFC); format: biochemical; details: pH 7.5; 2.1 nM caspase-8, 50 μM AcDEVD-AFC, 25° C., pH 7.50; read-out: Caspase-8 Kobs/[I] (converted)
T1 construct: p10 and p20 subunits (Thornberry, N. A. et al, Nature, 1992, 356, 768) were expressed in E. coli; made in house; host or cells: E. coli
T1 sequence (Q14790 217-374 limits assumed, species assumed): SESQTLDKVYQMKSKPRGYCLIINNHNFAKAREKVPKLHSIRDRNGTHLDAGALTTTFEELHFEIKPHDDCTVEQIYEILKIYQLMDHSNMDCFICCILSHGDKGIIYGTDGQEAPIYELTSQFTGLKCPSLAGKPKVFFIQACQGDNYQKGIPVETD
T1 sequence (Q14790 385-479 limits assumed, species assumed): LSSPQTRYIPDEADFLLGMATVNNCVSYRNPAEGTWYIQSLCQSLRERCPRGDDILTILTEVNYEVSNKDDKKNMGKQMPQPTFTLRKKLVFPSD
Description: Caspase-1 and caspase-8 known as cysteine proteases in the form of α2β2 were expressed, purified, and activated by modifying a method known in Thornberry, N. A. et al, Nature, 1992, 356, 768; Thornberry, N. A. Methods in Enzymology, 1994, 244, 615; Walker, N. P. C. et al. Cell, 1994, 78, 343, and caspase-9 was also purified by a similar method, and the inhibitory activity against them was tested. Briefly describing, p10 and p20 subunits (Thornberry, N. A. et al, Nature, 1992, 356, 768) were expressed in E. coli and purified by nickel column and anionic exchange chromatography to give caspase-1, caspase-8 and caspase-9. The fluorescent substrates AcYVAD-AFC for thus obtained caspase-1, AcDEVD-AFC for caspase-8, and AcLEHD-AFC for caspase-9, were used for determining specific activity of the synthesized inhibitors. The enzyme reaction was carried cut at 25° C. with various concentrations of the inhibitors in a buffer solution containing 50 mM HEPES(pH 7.50), 10% (w/v) sucrose, 0.1% (w/v) CHAPS, 100 mM NaCl, 1 mM EDTA, and 10 mM DTT in the presence of 50 μM AcYVAD-AFC for 10 nM caspase-1, 50 μM AcDEVD-AFC for 2.1 nM caspase-8, and 150 μM AcLEHD-AFC for 200 nM caspase-9. The inhibitory constants Ki and Kobs of the inhibitors were determined by measuring the reaction velocity with the time lapse using a fluorescent spectrometer and by obtaining the initial rate constant. Ki was calculated from the Lineweaver Burk Plot, and Kobs from the following Equation 1.
Kobs=−ln (1−At/Aoo)/t [Equation 1]
At means cleavage rate (%) at time t, and
Aoo means the maximum cleavage rate (%).
Spectra MAX GeminiXS Fluorescent Spectrometer of Molecular Device Co. W is used at the excitation wavelength of 405 nm and the emission wavelength of 505 nm.

IC50 [1]	kinact/KI (caspase-8)	SMILES
4900 nM	467 M⁻¹ s⁻¹	CCC(C(=O)NC(CC(=O)O)C(=O)CF)c1c(C)ccn(-c2ccccc2)c1=O (stereo not drawn) [Example 1, 5-Fluoro-3-[2-(4-methyl-2-oxo-1-phenyl-1,2-dihydro-pyridin-3-yl)-butyrylamino]-4-oxo-pentanoic acid]
2430 nM	1830 M⁻¹ s⁻¹	CCC(C(=O)NC(CC(=O)O)C(=O)CF)c1c(C)ccn(Cc2ccccc2)c1=O (stereo not drawn) [Example 2, 3-[2-(1-Benzyl-4-methyl-2-oxo-1,2-dihydro-pyridin-3-yl)-butyrylamino]-5-fluoro-4-oxo-pentanoic acid]
	750 M⁻¹ s⁻¹	CCC(C(=O)NC(CC(=O)O)C(=O)CF)c1c(C)ccn(CCc2ccccc2)c1=O (stereo not drawn) [Example 3, 5-Fluoro-3-[2-(4-methyl-2-oxo-1-phenethyl-1,2-dihydro-pyridin-3-yl)-butyrylamino]-4-oxo-pentanoic acid]
390 nM	733 M⁻¹ s⁻¹	CCC(C(=O)NC(CC(=O)O)C(=O)CF)c1c(C)ccn(CC(C)C)c1=O (stereo not drawn) [Example 4, 5-Fluoro-3-[2-(1-isobutyl-4-methyl-2-oxo-1,2-dihydro-pyridin-3-yl)-butyrylamino]-4-oxo-pentanoic acid]
810 nM	16700 M⁻¹ s⁻¹	CCC(C(=O)NC(CC(=O)O)C(=O)CF)c1cccn(Cc2ccccc2)c1=O (stereo not drawn) [Example 5, 3-[2-(1-Benzyl-2-oxo-1,2-dihydro-pyridin-3-yl)-butyrylamino]-5-fluoro-4-oxo-pentanoic acid]
2160 nM	3500 M⁻¹ s⁻¹	CC(C)C(C(=O)NC(CC(=O)O)C(=O)CF)c1cccn(Cc2ccccc2)c1=O (stereo not drawn) [Example 6, 3-[2-(1-Benzyl-2-oxo-1,2-dihydro-pyridin-3-yl)-3-methyl-butyrylamino]-5-fluoro-4-oxo-pentanoic acid]
640 nM	6670 M⁻¹ s⁻¹	CCCC(C(=O)NC(CC(=O)O)C(=O)CF)c1cccn(Cc2ccccc2)c1=O (stereo not drawn) [Example 7, 3-[2-(1-Benzyl-2-oxo-1,2-dihydro-pyridin-3-yl)-pentanoylamino]-5-fluoro-4-oxo-pentanoic acid]
180 nM	33300 M⁻¹ s⁻¹	CCC(C(=O)NC(CC(=O)O)C(=O)CF)c1cccn(Cc2ccccc2C(C)(C)C)c1=O (stereo not drawn) [Example 8, 3-{2-[1-(2-tert-Butyl-benzyl)-2-oxo-1,2-dihydro-pyridin-3-yl]-butyrylamino}-5-fluoro-4-oxo-pentanoic acid]

Reference: patent US20100016376A1, “CASPASE INHIBITORS BASED ON PYRIDONE SCAFFOLD” (LG Life Sciences Ltd., priority 2006, published 2010)
